Positions of bridges follow the written chain, without caps; N, C: chain ends. Non-standard residues stand in square brackets, D forms with d. No end group written: not given here. Abu = CC[C@H](N)C(=O)O; Dhb = C/C=C(\N)C(=O)O; Dha = C=C(N)C(=O)O
Key:
[1] = Liposome permeabilization assay, liposomes with lipid II; type: biochemical; conditions: 375 nM lantibiotic; DOPC with 0.1 mol% lipid II, 50 µM phospholipid; pyranine fluorescence, 30 min, room temperature; three replicates; Figure S7B
Procedure: To further investigate the mechanisms of action of these nisin-like lantibiotics, we performed liposome permeabilization assays using liposomes with or without lipid II (Figure S7).
Liposome Permeabilization Assay
To prepare pyranine encapsulated liposomes, DOPC (25 mg/mL in CHCl3, purchased from Avanti) was deposited into a vial and mixed with lipid II (dissolved in 2:1 CHCl3: MeOH, prepared chemoenzymatically).6 The solvent was removed using a stream of N2 leaving a thin film. Residual solvent was removed by storing it overnight in a vacuum desiccator. The film was rehydrated in buffer (5 mM Tricine, 5 mM MES, 5 mM NaCl, 1 mM pyranine pH = 6.0) and suspended with vortexing. The suspension was subjected to freeze-thaw three times before extrusion through a […] polycarbonate filter (21 passes). Excess pyranine was removed by passing the liposome solution through a Sephadex G-50 column previously equilibrated with buffer (5 mM Tricine, 5 mM MES, 5 mM NaCl, pH = 6.0). The eluted liposome solution containing the highest concentration of encapsulated pyranine (as determined visually with a UV lamp) was immediately placed on ice. Phospholipid concentration was determined by NMR as described previously.7 To measure liposome permeabilization, to a 96 well black polystyrene plate was added buffer (5 mM Tricine, 5 mM MES, 5 mM NaCl, pH = 8.0; 97 µL) and liposome solution (3 µL; 50 µM phospholipid concentration during assay). The wells were allowed to equilibrate for 8 min at room temperature then antibiotic was added. The antibiotic concentration in each well was 375 nM.
Pyranine fluorescence was monitored for 30 min then Triton X-100 was added to a final concentration of 0.1% and pyranine fluorescence was monitored for an additional 5 min. The pyranine fluorescence signal was max-min normalized. […]
Fig. S7 Liposome permeabilization assays of nisin-like lantibiotics. (A) Scheme of liposome […]
low fluorescence. Fluorescence increases upon liposome permeabilization and pH increase . (B) Fraction of liposomes permeabilized by lantibiotics (375 nM). Liposomes were composed of DOPC with or without 0.1 mol% lipid II. Error bars represent the standard of deviation of three […]
(1 picture or pasted object on this page, not shown here)

[2] = tested on: C. difficile VPI10463; assay: MIC assay, anaerobic broth dilution; type: cell-based, Clostridioides difficile; conditions: BHIS, 37 °C, 48 h, 3-fold serial dilution
Source text: Next, we set out to test the antimicrobial activities of these purified lantibiotics against a panel of Gram-positive bacteria that are representatives of some of the most prevalent human pathogens: VRE, Methicillin-resistant S. aureus USA300 (MRSA), Methicillin-resistant Staphylococcus epidermidis SK135 (MRSE), Listeria monocytogenes 10403S, and Clostridioides difficile VPI10463. We examined the growth of bacteria in a 96-well plate under a concentration gradient of lantibiotics under anaerobic conditions (Figure S2B).
(§1) Elution Buffer (4 M guanidine hydrochloride, 20 mM Tris HCl, pH 7.5 at 25 °C, 100 mM NaCl, 1 M imidazole). Peptides eluted from the Ni resin were concentrated and desalted using 3 kDa Amicon filters (Millipore). For leader peptide removal, the peptide (1:20 trypsin to peptide) was incubated with the trypsin protease in 50 mM Tris-HCl, pH 8 overnight at 37 °C. Lastly, the core peptides were further purified with HPLC using an Agilent 1200 instrument (Agilent) as specified […]
in general methods. […]
For broth cultures, isolates were grown in pre-reduced BHI supplemented with 5 g/L yeast extract (Difco, BD) and 0.1% L-cysteine under anaerobic condition. […]
(§2) All MIC assays were performed under anaerobic condition. […] Lantibiotics were dissolved in DPBS, and concentrations were determined by BCA assay (Pierce) according to the manufacturer’s protocol. […]

[3] = tested on: E. ramosum MSK.23.96; assay: MIC assay, anaerobic broth dilution; type: cell-based, Erysipeloclostridium ramosum; conditions: BHIS, 37 °C, 48 h, 3-fold serial dilution
Source text: (§3) Antibiotic treatment may result in collateral damage to commensal bacteria in the human microbiome, leading to dysbiosis and susceptibility to various diseases.[44] How lantibiotics impact Gram-positive commensals from the human gut has remained unclear. Therefore, we performed antimicrobial activity tests of these lantibiotics against selected Gram-positive human gut commensals, most of which belong to the Lachnospiraceae family, one of the most abundant bacterial families in the human gut.[27] In general, human gut commensals were more susceptible to the set of investigated lantibiotics compared to pathogens (Figure 3).
as §1, with “specified in general methods. About 1.5 mg recombinant peptide was obtained after HPLC purification per” for “specified”
as §2

[4] = tested on: selected Gram-positive human gut commensals; assay: MIC assay against the panel of Gram-positive human gut commensals; type: cell-based; conditions: commensal panel, Figure 3F-M; anaerobic
Source text: as §3
as §1, with “specified in general methods. About 1.5 mg recombinant peptide was obtained after HPLC purification per” for “specified”
as §2

nisin A (I[Dhb]AI[Dha]LC[Abu]PGCK[Abu]GALMGCNMK[Abu]A[Abu]CHCSIHV[Dha]K; thioether 8-11, 13-19, 23-26, 25-28, 3-7; UniProt P13068 24-57, looked up) [prototypical class I lantibiotic produced by L. lactis, food preservative; commercial nisin A]
permeabilization of lipid II-containing liposomes (in words) [1]: strongly induced permeabilization
nisin A MIC [2]: 2.67 µM
nisin A MIC [3]: 0.889 µM
antimicrobial activity against human gut commensals (ranking in words) [4]: generally more effective in growth inhibition

Reference: article PMC10877564, “Activity of Gut-Derived Nisin-like Lantibiotics against Human Gut Pathogens and Commensals” (ACS Chemical Biology, 2024)
